# Measurements taken from patent US10702484B2, “Use of 3-(3-hydroxy-4-methoxy-phenyl)-1-(2,4,6-trihydroxy-phenyl) propan-1-one” (SYMRISE AG, priority 2016, dated 2020).
# Columns and labels:
# [1] = test system: group of experts; experiment: Modification of the sweet profile of a sucrose solution (sensory panel); type: in vivo; conditions: for Beginning of sweet impression (<2 sec) / Overall sweet impression / Sugar full flavour and taste: n=12
# From the text: The taste profile of a 7 wt % aqueous sucrose solution was compared with by a group of experts (n=12) in each case with a specimen having an equivalent composition and additionally a 1.5% sucrose (B), 5 ppm, 7 ppm or 20 ppm hesperetin dihydrochalcone (I).
# [2] = J. Chem. Senses 1979, 4(1), 35-47; cited from earlier work
# [3] = test system: group of experts; experiment: Intensification of the sweet impression of a sugar solution (sensory panel rating); type: in vivo
# From the text: In order to quantify the intensification of the sweet impression, in each case the sweetness of a 5% sucrose solution was compared by a group of experts with a specimen containing 5% sucrose and 1 ppm, 5 ppm, 7 ppm or 10 ppm of the hesperetin dihydrochalcone (I) to be used according to the invention (rating: 1 [not sweet] to 10 [extremely sweet]). For comparison issues, the intensification of the sweet impression containing with a specimen containing 5% sucrose and 10 ppm or 25 ppm deoxy hesperetin dihydrochalcone is also included.
# For the assessment, i.e. calculation of the intensification (in %) of the sweet impression in each case the average values of the assessments of the group of experts for the sucrose solution and the specimen for comparison containing sucrose and hesperetin dihydrochalcone (I) or deoxy hesperetin dihydrochalcone were used.
# [4] = test system: group of 30 experts; experiment: Intrinsic sweetness, two-alternative forced choice (2AFC) test; type: in vivo; conditions: 10 ppm in water, α=0.05
# From the text: A group of 30 experts were asked in a two-alternative forced choice (2AFC) test to select the solution with the stronger sweet impression from a couple of solutions. The evaluated solutions-couples are selected from a group of solutions consisting of a solution of hesperetin dihydrochalcone (I) in water (20 ppm, 15 ppm, 12.5 ppm, and 10 ppm) and a 1.5 wt % aqueous sucrose solution.
# [5] = test system: group of experts; experiment: Bitter-reduction of a bitter substance solution (sensory panel rating); type: in vivo; conditions: for Bitter impression of bitter substance + compound (I) (average values): n=18
# From the text: In order to quantify the decrease (i.e. the masking or reduction) in bitter impression in a specimen, the bitterness of a solution containing different bitter tasting substances in specific concentrations was compared by a group of experts (n=18) in each case with a specimen having an equivalent composition and additionally a specific concentration of hesperetin dihydrochalcone (I) (rating: 1 [not bitter] to 100 [extremely bitter]).
# For the assessment, i.e. the calculation of the reduction (in %) of the bitter impression in each case the average values of the assessments of the group of experts for the respective bitter substance solution and the bitter substance solution also containing 10 ppm hesperetin dihydrochalcone (I) were used (*sign.lev. α=0.05). For comparison issues, the calculation of the reduction (in %) of the bitter impression for the respective bitter substance solution containing deoxy hesperetin dihydrochalcone is also included.
# [6] = test system: group of experts; experiment: Modulation of the cooling-profile of WS-3 (sensory panel); type: in vivo; conditions: 1 ppm added to aqueous solution of 5 wt % sucrose and 4 ppm WS-3; n=5
# From the text: A group of experts (n=5) evaluated the influence on the cooling profile of an aqueous solution containing 5 wt % sucrose and 4 ppm WS-3.
# [7] = test system: group of experts; experiment: Improvement of the taste profile of chicken flavour (sensory panel); type: in vivo; conditions: addition of 2 ppm; n=3
# From the text: A group of experts (n=3) evaluated the influence on the taste profile of a chicken flavour with the typical descriptors of chicken meat note, boiled note, bony, light sour by the addition of 2 ppm hesperetin dihydrochalcone (I).
# [8] = in soft drinks; purity>90%; cited from earlier work
# [9] = in the presence of acids; cited from earlier work
# [10] = 7% Sucrose-solution + 1.5% Sucrose (=8.5% sucrose solution)
# [11] = 5% sucrose + 10 ppm test substance
# [12] = 5% sucrose + 10 ppm test substance, rating 1 to 10
# [13] = 7 wt % aqueous sucrose solution
molecule,measurement,setting,value
"OC[C@H]1O[C@@](CO)(O[C@H]2O[C@H](CO)[C@@H](O)[C@H](O)[C@H]2O)[C@@H](O)[C@@H]1O [Sucrose, sucrose, reference compound]",Beginning of sweet impression (<2 sec),[1]; [10],5.74
same,Overall sweet impression,[1]; [10],6.36
same,Sugar full flavour and taste,[1]; [10],5.17
COc1ccc(CCC(=O)c2ccccc2O)cc1O [dihydrochalcone (2)],Taste (sweetening power) as presented in the publication,[2],intensively sweet tasting
COc1ccc(CCC(=O)c2c(O)cccc2O)cc1O [dihydrochalcone (3)],Taste (sweetening power) as presented in the publication,[2],tasteless
"COc1ccc(CCC(=O)c2c(O)cc(O)cc2O)cc1O [hesperetin dihydrochalcone (I), 3-(3-Hydroxy-4-methoxy-phenyl)-1-(2,4,6-trihydroxyphenyl)propan-1-one]",Intensification of the sweet impression,[3]; 5% sucrose + 1 ppm test substance,14.1%
same,Sweet impression (1-10) Specimen (Sucrose + Test substance),"[3]; 5% sucrose + 1 ppm test substance, rating 1 [not sweet] to 10 [extremely sweet]",6.1
same,Intensification of the sweet impression,[3]; 5% sucrose + 5 ppm test substance,32.6%
same,Sweet impression (1-10) Specimen (Sucrose + Test substance),"[3]; 5% sucrose + 5 ppm test substance, rating 1 to 10",7.1
same,Intensification of the sweet impression,[3]; 5% sucrose + 7 ppm test substance,35.7%
same,Sweet impression (1-10) Specimen (Sucrose + Test substance),"[3]; 5% sucrose + 7 ppm test substance, rating 1 to 10",7.3
same,Intensification of the sweet impression,[3]; [11],38.6%
same,Sweet impression (1-10) Specimen (Sucrose + Test substance),[3]; [12],7.8
same,Intensification of the sweet impression compared to 10 ppm deoxy hesperetin dihydrochalcone (in words),"[3]; 5 ppm, 5% sucrose",clearly higher
same,Intensification of the sweet impression compared to the same amount of deoxy hesperetin dihydrochalcone (in words),"[3]; 10 ppm, 5% sucrose",remarkable intensification
same,Sweet impression compared to the 1.5 wt % aqueous sucrose solution,[4],remarkably weaker
same,Reduction in bitter impression by adding 10 ppm of compound (I),[5]; 5 ppm Chininhydrochloride,−25.0%
same,Bitter impression of bitter substance + compound (I) (average values),"[5]; 5 ppm Chininhydrochloride + 10 ppm compound (I), rating 1 to 100",29.05
same,Reduction of the bitter impression of Chininhydrochloride (in words),[5]; 10 ppm,remarkable reduction
same,Bitter impression of bitter substance + compound (I) (average values),"[5]; 100 ppm Naringin + 10 ppm compound (I), rating 1 to 100",46.54
same,Reduction in bitter impression by adding 10 ppm of compound (I),"[5]; 100 ppm Naringin, * sign.lev. α=0.05",−21.5%*
same,Bitter impression of bitter substance + compound (I) (average values),"[5]; 250 ppm Salicin + 10 ppm compound (I), rating 1 to 100",51.40
same,Reduction in bitter impression by adding 10 ppm of compound (I),"[5]; 250 ppm Salicin, * sign.lev. α=0.05",−17.6%*
same,Reduction in bitter impression by adding 10 ppm of compound (I),[5]; 300 ppm Theobromine,−12.4%
same,Bitter impression of bitter substance + compound (I) (average values),"[5]; 300 ppm Theobromine + 10 ppm compound (I), rating 1 to 100",45.01
same,Reduction in bitter impression by adding 10 ppm of compound (I),[5]; 500 ppm Coffeine,−13.8%
same,Bitter impression of bitter substance + compound (I) (average values),"[5]; 500 ppm Coffeine + 10 ppm compound (I), rating 1 [not bitter] to 100 [extremely bitter]",37.46
same,Reduction of the bitter impression of Naringin compared to deoxy hesperetin dihydrochalcone (in words),"[5]; Naringin, 10 ppm versus 50 ppm deoxy hesperetin dihydrochalcone",notable increase in the reduction of the bitter impression
same,Cooling effect (in words),[6],slightly improvement
same,Perception of cooling impression (in words),[6],faster
same,Beginning of sweet impression (<2 sec),[1]; 7% Sucrose-solution + 5 ppm,4.63
same,Overall sweet impression,[1]; 7% Sucrose-solution + 5 ppm,5.24
same,Sugar full flavour and taste,[1]; 7% Sucrose-solution + 5 ppm,4.26
same,Beginning of sweet impression (<2 sec),[1]; 7% Sucrose-solution + 7 ppm,4.78
same,Overall sweet impression,[1]; 7% Sucrose-solution + 7 ppm,5.93
same,Sugar full flavour and taste,[1]; 7% Sucrose-solution + 7 ppm,4.42
same,Beginning of sweet impression (<2 sec),[1]; 7% Sucrose-solution + 20 ppm,4.49
same,Overall sweet impression,[1]; 7% Sucrose-solution + 20 ppm,4.90
same,Sugar full flavour and taste,[1]; 7% Sucrose-solution + 20 ppm,4.11
same,Effect on the overall sweet impression (in words),[1]; [13],increases
same,Influence on the beginning of sweet impression (sweet impact) and the perceived sugar full flavour and taste (in words),[1]; [13],positive influence
same,"Influence on the taste profile of chicken flavour (chicken meat note, boiled note, bony, light sour)",[7],without a negative influence
same,Mouth fullness of chicken flavour (in words),[7],remarkably enhance
C=C1C[C@@]23CC[C@H]4[C@@](C)(CCC[C@@]4(C)C(=O)O[C@@H]4O[C@H](CO)[C@@H](O)[C@H](O)[C@H]4O)[C@@H]2CC[C@]1(O[C@@H]1O[C@H](CO)[C@@H](O)[C@H](O[C@@H]2O[C@H](CO)[C@@H](O)[C@H](O)[C@H]2O)[C@H]1O[C@@H]1O[C@H](CO)[C@@H](O)[C@H](O)[C@H]1O)C3 [rebaudioside A],Concentration necessary to achieve a sweetness corresponding to a concentration of sucrose of 10% by weight,[8],400-600 ppm
deoxy hesperetin dihydrochalcone [reference compound],Intensification of the sweet impression,[3]; [11],21.2%
same,Sweet impression (1-10) Specimen (Sucrose + Test substance),[3]; [12],6.4
same,Intensification of the sweet impression,[3]; 5% sucrose + 25 ppm test substance,42%
same,Sweet impression (1-10) Specimen (Sucrose + Test substance),"[3]; 5% sucrose + 25 ppm test substance, rating 1 to 10",6.9
same,Reduction in bitter impression by adding 50 ppm of deoxy hesperetin dihydrochalcone,[5]; 5 ppm Chininhydrochloride,+10.7%
same,Reduction of the bitter impression of Chininhydrochloride (in words),[5]; 50 ppm,no reduction
same,"Amount necessary, as factor of the amount of hesperetin dihydrochalcone (I), to obtain a similar reduction of the bitter impression",[5]; 50 ppm versus 10 ppm,5
same,Reduction in bitter impression by adding 50 ppm of deoxy hesperetin dihydrochalcone,[5]; 100 ppm Naringin,−6.6%
same,Reduction in bitter impression by adding 50 ppm of deoxy hesperetin dihydrochalcone,[5]; 250 ppm Salicin,−15.2%
same,Reduction in bitter impression by adding 50 ppm of deoxy hesperetin dihydrochalcone,[5]; 500 ppm Coffeine,−11.3%
"miraculin (protein, UniProt P13087 30-220, looked up, protein that in the presence of acids transforms the sour impression into a sweet taste impression) Miraculin: DSAPNPVLDIDGEKLRTGTNYYIVPVLRDHGGGLTVSATTPNGTFVCPPRVVQTRKEVDHDRPLAFFPENPKEDVVRVSTDLNINFSAFMPCRWTSSTVWRLDKYDESTGQYFVTIGGVKGNPGPETISSWFKIEEFCGSGFYKLVFCPTVCGSCKVKCGDVGIYIDQKGRRRLALSDKPFAFEFNKTVYF",Duration of the effect (sour impression transformed into sweet taste impression),[9],2 to 4 h
